# Read-outs that look alike come from different tables or passages of the source.
# Assays:
# [1] = test system: Lettuce cv Set; assay: Safening of fertilisers, pot trial: phytotoxicity and vigour scores, lettuce; assay type: in vivo
# Description: The safening system and the fertilizer were applied either simultaneously or sequentially.
# Sprayed: mid-tillering phase (GS23). Winter Wheat: cv Limerick, sown 4 Jun. […] Sprayed: mid-tillering phase (GS23). Lettuce: cv Set, sown 10 Jul. 2008, at one seed per pot, in John Innes No 1 compost. Date of spraying: 30 July; Dates of measurement: 7 August, 14 August, 28 August. Sprayed: 2 true leaf stage.
# [2] = test system: Winter Barley cv Saffron; settings: for Vigour (0-9) (9 = Most Vigour) + 14 days: score 0-9, 9 = Most Vigour; for Vigour (0-9) + 28 Days: score 0-9, +28 days
# Description: (§1) The safening system and the fungicide were applied to the crops either simultaneously or sequentially, either as foliar applications or as a seed treatment.
# (§2) Winter Barley: cv Saffron, sown 27 May 2008, at four/five seeds per 9 cm pot, sown in standard multi-purpose compost of pH 6.5. Date of spraying: 23 July; Dates of measurement/scoring: 30 July, 14 August, 22 August. Sprayed: mid-tillering phase (GS23). Winter Wheat: cv Limerick, sown 4 Jun. 2008, at four/five seeds per 9 cm pot, sown in standard multi-purpose compost of pH 6.5. Date of spraying: 23 July; Dates of measurement/scoring: 30 July, 14 August, 23 August. Sprayed: mid-tillering phase (GS23). Maize: cv Sundance, sown 25 May 2008, at 10 seeds per 25 cm pot, in John Innes No 1 compost. Date of measurement/assessment: 15 June. Seed treatment trial. Randomised block, mean of five replicates.
# (§3) SAF: at least one from class (f) each at <3 g/l, plus at least one from class (c).
# [3] = test system: Winter Wheat cv Limerick; settings: +14 days
# Description: as §1, §2, §3
# [4] = test system: Winter wheat cv Alchemy; assay: Safening of herbicides (Chlorotoluron, Isoproturon, Flumioxazin), winter wheat
# Description: Safening systems were applied to crops of oilseed rape and winter treated with various herbicides (Bifenox (with insecticide), Carbetamide, Propaquizafop, Chlorotoluron, Isoproturon, Flumioxazin). The safening system and the herbicide were applied to the crops either simultaneously or sequentially.
# Oilseed rape: cv Excalibur, sown 26 Apr. 2008, at two seeds per 9 cm pot, sown in normal pH multi-purpose compost. Date of spraying: 6 June; Dates of measurement/scoring: 13 June, 20 June, 5 July. Winter wheat: cv Alchemy, sown 23 Apr. 2008, at seven seeds per 9 cm pot, sown in normal pH multi-purpose compost. Date of spraying: 24 May; Dates of measurement/scoring: 31 May, 7 June, 21 June. SAF: at least one from class (f) each at <3 g/l, plus at least one from class (c).
# Statistical Layout: Randomised Complete Block trials, under glasshouse conditions, United Kingdom.
# [5] = test system: Soybean; assay: Root nodulation and safening, soybean, compost of low pH (Example 7.1); settings: Soybean, compost of low pH (5.0-5.5)
# Description: (§4) The safener/safening system and the fertiliser were applied to the crops either simultaneously or sequentially.
# (§5) Co=100% Cobalt Sulphate (20 g per litre and per hectare). FF1=20 g per litre Cobalt Sulphate (as per Co above) plus “Miracle-Gro” at xl recommended rate (applied at 15 g per 2.5 sq metres). Miracle-Gro contains: 24% N, 4% P, 13% K, plus 0.02% B, 0.03% Cu, 0.19% Fe, 0.05% Mn, 0.001% Mo and 0.03% Zn. FF2=20 g per litre Cobalt Sulphate plus Miracle-Gro at ×2 recommended rate. SAF: at least one from class (f) each at <3 g/l, plus at least one from class (c).
# Scored/Counted+28 Days After Spraying. Sown in Compost of low pH (5.0-5.5) on 1 May 2008. Spray Date (VC)=4 June, V1 Date=20 June. Scored/Measured on 17 July. […] Seed density approx 110 kg/ha. Soybean treated with standard inoculant at sowing.
# [6] = test system: Glycine max (Soybean); assay: Root nodulation and safening, soybean, compost of normal pH (Example 7.2); settings: compost of normal pH (6.5)
# Description: as §4, §5
# Dates as per Example 7.1 above, but sown in compost of normal pH (6.5). Each treatment represents the mean values for 12 plants, within four replicates. Sowing density 110 kg/ha. Standard inoculant applied at sowing.
# [7] = test system: NAVY BEAN cv Mogex; assay: Root nodulation and safening, navy bean, compost of low pH (Example 7.3); settings: compost of low pH (5.0-5.5)
# Description: as §4, §5
# NAVY BEAN cv Mogex. Scored/Counted+28 Days after Spraying. Sown in Compost of low pH (5.0-5.5) on 29 Apr. 2008. Spray Date (VC)=27 May, V1 Date=16 June. Scored/Measured on 11 July. Each treatment represents the mean value of 12 plants, within four replicates. No inoculum applied.
# [8] = Table 2.1, fungicide Prochloraz
# [9] = Table 2.2, fungicide Flutriafol
# [10] = Table 2.3, fungicides Fenpropidin and Flutriafol
smiles,measurement,setting,value
"CC(=O)Nc1ccc(O)cc1 [AC, N-(4-hydroxypheyl)acetamide, reference compound]",Vigour (0-9) (9 = Most Vigour) + 14 days,[1]; 336 h,8.0
same,Vigour (0-9) + 28 Days,[1]; 672 h,8.0
same,Vigour (0-9) (9 = Most Vigour) + 14 days,"[1]; Table 1.8, lettuce, KP/ATS, score 0-9, +14 days",8.0
same,Vigour (0-9) + 28 Days,"[1]; Table 1.8, lettuce, KP/ATS, score 0-9, +28 days",8.0
same,Vigour (0-9) (9 = Most Vigour) + 14 days,"[1]; Table 1.9, lettuce, general fertilisers, score 0-9, 9 = Most Vigour, +14 days",8.0
same,Vigour (0-9) + 28 Days,"[1]; Table 1.9, lettuce, general fertilisers, score 0-9, +28 days",8.0
same,Phytotoxicity (0-9) (0 = Dead) + 14 Days,[1]; in vivo,7.0
same,Phytotoxicity (0-9) (0 = Dead) + 28 Days,[1]; in vivo,6.5
same,Vigour (0-9) (9 = Most Vigour) + 14 days,[2]; [8],7.0
same,Vigour (0-9) + 28 Days,[2]; [8],8.0
same,Vigour (0-9) (9 = Most Vigour) + 14 days,[2]; [9],7.0
same,Vigour (0-9) + 28 Days,[2]; [9],8.0
same,Vigour (0-9) (9 = Most Vigour) + 14 days,[2]; [10],7.0
same,Vigour (0-9) + 28 Days,[2]; [10],8.0
same,Vigour (0-9) (9 = Most Vigour) + 14 days,"[3]; Table 2.4, winter wheat, fungicide Prochloraz, score 0-9, 9 = Most Vigour",7.0
same,Vigour (0-9) (9 = Most Vigour) + 14 days,"[3]; Table 2.5, winter wheat, fungicide Flutriafol, score 0-9, 9 = Most Vigour",7.0
same,Vigour (0-9) (9 = Most Vigour) + 14 days,"[3]; score 0-9, 9 = most vigour, foliar, fungicides Fenpropidin and Flutriafol, Table 2.6",7.0
same,Greenness (0-9) (9 = Deeper Green) + 14 Days,"[4]; Table 3.3, no herbicide",8.0
same,Greenness (0-9) + 28 Days,"[4]; Table 3.3, no herbicide",8.0
same,Phytotoxicity (0-9) + 28 Days,"[4]; Table 3.3, no herbicide",8.0
same,Greenness (0-9) (9 = Deeper Green) + 14 Days,"[4]; Table 3.4, no herbicide",8.0
same,Greenness (0-9) + 28 Days,"[4]; Table 3.4, no herbicide",8.0
same,Phytotoxicity (0-9) + 28 Days,"[4]; Table 3.4, no herbicide",8.0
same,Greenness (0-9) (9 = Deeper Green) + 14 Days,"[4]; Table 3.5, no herbicide",8.0
same,Greenness (0-9) + 28 Days,"[4]; Table 3.5, no herbicide",8.0
same,Phytotoxicity (0-9) + 28 Days,"[4]; Table 3.5, no herbicide",8.0
same,Nodules Per Plant (V1),"[5]; V1, +28 days after spraying, mean of 12 plants",26.1
same,Nodulation Score (0-9) (V1),"[5]; V1, score 0-9",5.0
same,Phyto-Toxicity Score (0-9) (V1),"[5]; V1, score 0-9",8.0
same,Vigour Score (0-9) (V1),"[5]; V1, score 0-9",6.0
same,Nodules Per Plant (VC),"[5]; VC, +28 days after spraying",28.1
same,Nod Score (0-9) (VC),"[5]; VC, score 0-9",5.3
same,Nodules Per Plant (V1),"[6]; V1, mean of 12 plants",29.9
same,Nodulation Score (0-9) (V1),"[6]; V1, score 0-9",5.5
same,Phyto-Toxicity Score (0-9) (V1),"[6]; V1, score 0-9",8.0
same,Vigour Score (0-9) (V1),"[6]; V1, score 0-9",6.5
same,Nodules Per Plant (VC),[6]; VC,32.0
same,Nod Score (0-9) (VC),"[6]; VC, score 0-9",5.7
same,Nodules Per Plant (V1),"[7]; V1, +28 days after spraying, no inoculum",19.3
same,Nodulation Score (0-9) (V1),"[7]; V1, score 0-9",3.1
same,Phyto-Toxicity Score (0-9) (V1),"[7]; V1, score 0-9",5.6
same,Vigour Score (0-9) (V1),"[7]; V1, score 0-9",6.0
same,Nodules Per Plant (VC),[7]; VC,22.1
same,Nod Score (0-9) (VC),"[7]; VC, score 0-9",3.5

# From patent US20120088667A1, “SAFENING AGENT” (priority 2009, published 2012)
